Reference: paper PMC12656268, “Venom Peptides Across Asian and American Tarantulas Utilize Dual Pharmacology to Target Activation and Fast Inactivation of Voltage-Gated Sodium Channels” (Toxins, 2025)
Positions of bridges follow the written chain, without caps; N, C: chain ends. Residues, ends and D or L forms follow the SMILES beside them.

Key:
[1] = test system: hNaV1.1 to hNaV1.7; test: NaV subtype preference across NaV1.1 to NaV1.7, patch clamp; assay type: cell-based, human; conditions: NaV1.1 to NaV1.7, closed-state voltage protocol
Experimental: Unless otherwise specified, all cell culture reagents were obtained from Life Technologies (Carlsbad, CA, USA). The human neuroblastoma cell line SH-SY5Y (ATCC CRL-2266; Manassas, VA, USA) was maintained in RPMI medium supplemented with 15% fetal bovine serum (FBS) and 2 mM L-glutamine. HEK293 cells stably expressing human NaV channel isoforms together with the β1 auxiliary subunit (SB Drug Discovery, Glasgow, UK) were propagated in Minimal Essential Medium (MEM; Sigma-Aldrich, St. Louis, MO, USA) containing 10% FBS, 100 U/mL penicillin, 100 µg/mL streptomycin, 2 mM L-glutamine, and selective antibiotics (blasticidin, geneticin, and zeocin) at concentrations recommended by the supplier. HEK293T cells expressing the human CaV3.2 channel (a generous gift from Prof. Emmanuel Bourinet, Institut de Génomique Fonctionnelle, Université de Montpellier, France, and Prof. Edward Perez-Reyes, University of Virginia School of Medicine, USA) were grown in Dulbecco’s MEM supplemented with 10% FBS, 100 U/mL penicillin, 100 µg/mL streptomycin, and 750 µg/mL geneticin.
Sodium channel currents were recorded from HEK293 cells expressing human NaV isoforms together with the β1 auxiliary subunit (SB Drug Discovery, Glasgow, UK) using the QPatch 16X automated whole-cell patch-clamp platform (Sophion Bioscience A/S, Ballerup, Denmark). The external recording solution contained (in mM) the following: 140 NaCl, 3 KCl, 1 CaCl2, 1 MgCl2, 0.1 CdCl2, 20 tetraethylammonium chloride (TEA-Cl), and 5 HEPES; pH was adjusted to 7.3 and osmolarity to 320 mOsm. The internal (pipette) solution consisted of (in mM) the following: 140 CsF, 10 NaCl, 10 HEPES, and 1/5 EGTA/CsOH, also adjusted to pH 7.3 and 320 mOsm. […] For determining the potency of Oa1a peptides to inhibit peak current, the maximum peak current within the 20 ms at 0 mV was measured. For determining the potency of Oa1a-NH2 to slow fast inactivation, peak current values were measured at 20 ms of the 0 mV depolarization step. […]
For calcium influx experiments, bioactivity comparisons between venom fractions and controls were based on the difference between the maximal and minimal fluorescence intensity values obtained from single-replicate assays. […] Reversibility and dissociation kinetics were analyzed by fitting data with a single-phase exponential decay model, while voltage-dependence of steady-state activation and inactivation parameters were derived from Boltzmann sigmoid fits of normalized conductance (G/Gmax) or current (I/Imax) values to determine the half-activation or half-inactivation voltages (V50). Data are expressed as mean ± SEM, where n represents the number of individual cells analyzed.

[2] = molecular target: NaV1.3 (Homo sapiens, UniProt Q9NY46); test: Slowing of fast inactivation of NaV1.3; assay type: cell-based
Experimental: Sodium channel currents were recorded from HEK293 cells expressing human NaV isoforms together with the β1 auxiliary subunit (SB Drug Discovery, Glasgow, UK) using the QPatch 16X automated whole-cell patch-clamp platform (Sophion Bioscience A/S, Ballerup, Denmark). The external recording solution contained (in mM) the following: 140 NaCl, 3 KCl, 1 CaCl2, 1 MgCl2, 0.1 CdCl2, 20 tetraethylammonium chloride (TEA-Cl), and 5 HEPES; pH was adjusted to 7.3 and osmolarity to 320 mOsm. The internal (pipette) solution consisted of (in mM) the following: 140 CsF, 10 NaCl, 10 HEPES, and 1/5 EGTA/CsOH, also adjusted to pH 7.3 and 320 mOsm. Cells were voltage-clamped at a holding potential of −80 mV, and inward Na^+ currents were evoked by 20 ms depolarizing pulses to 0 mV following a 200 ms hyperpolarizing prepulse to −120 mV. To obtain concentration–response curves, cells at holding potential were incubated for 5 min with increasing concentrations of Oa1a peptides. For determining the potency of Oa1a peptides to inhibit peak current, the maximum peak current within the 20 ms at 0 mV was measured. For determining the potency of Oa1a-NH2 to slow fast inactivation, peak current values were measured at 20 ms of the 0 mV depolarization step. Ion currents (INa) were plotted as I/Imax, where I = current value and Imax = highest current value within the experiment.
For calcium influx experiments, bioactivity comparisons between venom fractions and controls were based on the difference between the maximal and minimal fluorescence intensity values obtained from single-replicate assays. Electrophysiological data analysis was conducted using GraphPad Prism (version 8; GraphPad Software, San Diego, CA, USA). Nonlinear regression was applied to fit the concentration–response relationships using a variable Hill slope: log(inhibitor) versus normalized response for determining IC50 values, and log(agonist) versus normalized response for EC50 calculations. Reversibility and dissociation kinetics were analyzed by fitting data with a single-phase exponential decay model, while voltage-dependence of steady-state activation and inactivation parameters were derived from Boltzmann sigmoid fits of normalized conductance (G/Gmax) or current (I/Imax) values to determine the half-activation or half-inactivation voltages (V50). Data are expressed as mean ± SEM, where n represents the number of individual cells analyzed.

Chain of NaV1.3 (Q9NY46 whole entry, canonical isoform): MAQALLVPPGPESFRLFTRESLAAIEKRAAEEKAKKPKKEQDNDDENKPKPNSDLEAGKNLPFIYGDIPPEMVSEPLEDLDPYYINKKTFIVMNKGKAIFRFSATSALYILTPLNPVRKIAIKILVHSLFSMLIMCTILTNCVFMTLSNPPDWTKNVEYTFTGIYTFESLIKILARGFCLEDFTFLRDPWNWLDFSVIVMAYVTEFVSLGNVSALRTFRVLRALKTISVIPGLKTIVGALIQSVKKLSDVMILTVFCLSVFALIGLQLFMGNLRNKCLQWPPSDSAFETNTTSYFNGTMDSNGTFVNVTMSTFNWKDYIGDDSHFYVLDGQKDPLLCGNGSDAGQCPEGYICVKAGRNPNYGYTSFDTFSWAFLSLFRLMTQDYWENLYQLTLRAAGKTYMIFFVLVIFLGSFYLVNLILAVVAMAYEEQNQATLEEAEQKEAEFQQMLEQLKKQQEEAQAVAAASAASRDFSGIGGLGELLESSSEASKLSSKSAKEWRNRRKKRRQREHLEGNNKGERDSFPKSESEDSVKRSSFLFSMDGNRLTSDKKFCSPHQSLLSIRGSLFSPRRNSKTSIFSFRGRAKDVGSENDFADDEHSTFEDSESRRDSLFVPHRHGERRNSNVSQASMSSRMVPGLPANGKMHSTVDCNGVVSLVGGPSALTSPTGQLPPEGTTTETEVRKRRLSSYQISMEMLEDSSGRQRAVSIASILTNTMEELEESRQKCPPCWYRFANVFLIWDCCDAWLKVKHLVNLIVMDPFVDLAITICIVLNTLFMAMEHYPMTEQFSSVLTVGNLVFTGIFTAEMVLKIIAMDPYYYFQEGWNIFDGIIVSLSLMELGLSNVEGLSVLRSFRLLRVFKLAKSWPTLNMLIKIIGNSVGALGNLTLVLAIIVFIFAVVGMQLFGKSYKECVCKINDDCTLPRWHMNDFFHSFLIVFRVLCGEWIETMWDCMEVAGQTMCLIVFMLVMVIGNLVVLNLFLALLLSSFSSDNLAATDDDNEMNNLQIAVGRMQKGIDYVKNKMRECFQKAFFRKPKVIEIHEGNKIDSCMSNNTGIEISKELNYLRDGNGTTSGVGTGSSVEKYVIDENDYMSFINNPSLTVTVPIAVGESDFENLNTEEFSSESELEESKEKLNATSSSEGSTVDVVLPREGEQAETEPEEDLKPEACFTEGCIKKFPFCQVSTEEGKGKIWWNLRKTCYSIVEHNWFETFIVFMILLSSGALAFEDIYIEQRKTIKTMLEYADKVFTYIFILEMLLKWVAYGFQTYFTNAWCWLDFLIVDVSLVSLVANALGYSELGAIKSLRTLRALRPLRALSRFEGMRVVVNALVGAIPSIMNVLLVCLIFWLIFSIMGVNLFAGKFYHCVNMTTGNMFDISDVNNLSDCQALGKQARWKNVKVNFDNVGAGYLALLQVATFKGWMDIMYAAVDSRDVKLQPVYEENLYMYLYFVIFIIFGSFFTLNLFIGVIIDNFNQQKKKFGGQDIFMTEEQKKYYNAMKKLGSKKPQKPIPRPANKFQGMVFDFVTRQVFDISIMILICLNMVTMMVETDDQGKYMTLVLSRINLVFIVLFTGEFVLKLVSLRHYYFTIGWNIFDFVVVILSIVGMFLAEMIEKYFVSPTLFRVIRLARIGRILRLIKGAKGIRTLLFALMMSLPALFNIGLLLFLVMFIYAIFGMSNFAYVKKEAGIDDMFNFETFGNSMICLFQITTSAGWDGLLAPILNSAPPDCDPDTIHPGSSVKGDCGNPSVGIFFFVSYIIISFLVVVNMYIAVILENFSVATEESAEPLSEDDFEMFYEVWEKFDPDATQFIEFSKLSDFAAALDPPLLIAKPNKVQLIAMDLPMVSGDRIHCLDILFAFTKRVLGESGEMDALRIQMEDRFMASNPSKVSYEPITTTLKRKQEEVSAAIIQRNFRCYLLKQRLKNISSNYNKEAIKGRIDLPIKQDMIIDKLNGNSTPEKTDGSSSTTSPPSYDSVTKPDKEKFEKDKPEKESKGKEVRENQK
Chain of NaV1.3 (Q07699 19-218, further chain): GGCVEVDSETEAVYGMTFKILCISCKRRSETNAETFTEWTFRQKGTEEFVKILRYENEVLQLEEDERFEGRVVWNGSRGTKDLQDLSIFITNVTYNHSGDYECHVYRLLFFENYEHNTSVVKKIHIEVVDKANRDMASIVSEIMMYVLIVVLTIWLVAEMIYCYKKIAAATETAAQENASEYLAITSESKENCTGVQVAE

CC(C)C[C@@H]1NC(=O)[C@H](Cc2ccccc2)NC(=O)[C@H](Cc2ccc(O)cc2)NC(=O)[C@H](CCCNC(=N)N)NC(=O)[C@@H](NC(=O)[C@H](CCC(=O)O)NC(=O)CN)CSSC[C@@H]2NC(=O)[C@@H]3CSSC[C@@H](C(=O)N[C@H](C(=O)N[C@@H](Cc4c[nH]c5ccccc45)C(=O)N[C@@H](CC(=O)O)C(=O)N[C@@H](Cc4c[nH]c5ccccc45)C(=O)N[C@H](C(=O)N[C@@H](Cc4ccccc4)C(=O)O)[C@@H](C)O)C(C)C)NC(=O)[C@H](Cc4c[nH]c5ccccc45)NC(=O)[C@H](CCC(N)=O)NC(=O)[C@H](Cc4c[nH]cn4)NC(=O)[C@H](CCCCN)NC(=O)[C@H](CC(N)=O)NC(=O)[C@H](Cc4c[nH]cn4)NC(=O)[C@H](CSSC[C@H](NC(=O)CNC(=O)CNC1=O)C(=O)N[C@@H](CO)C(=O)N[C@@H](CCC(N)=O)C(=O)NCC(=O)N[C@@H](CCC(=O)O)C(=O)N[C@@H](CCCCN)C(=O)N3)NC(=O)[C@H](C(C)C)NC(=O)[C@H](CC(C)C)NC(=O)[C@H](Cc1c[nH]cn1)NC(=O)[C@H](CCC(=O)O)NC2=O [rOa1a] (H-GECRYFLGGCSQGEKCCEHLVCHNKHQWCVWDWTF-OH; disulfide 3-17, 10-22, 16-29; N-terminus and C-terminus assumed)
NaV subtype preference of inhibition (in words) [1]: preference for inhibiting NaV1.2, NaV1.3, NaV1.6, and NaV1.7
NaV subtype preference of inhibition (in words) ([1]; listed as recombinant Oa1a): preference for inhibiting NaV1.2, NaV1.6, and NaV1.7
Slowing of fast inactivation of NaV1.3 (in words) ([2]; closed-state voltage protocol, current traces, concentrations up to those of IC50 curves): strongly slowing the fast inactivation of NaV1.3
Fold less potency in slowing fast inactivation of NaV1.3 compared to sOa1a-NH2 ([2]; ratio of EC50 values): 4.8 fold
